Source: PMC9034974, “Physicochemical characterization of the recombinant lectin scytovirin and microbicidal activity of the SD1 domain produced in rice against HIV-1” (Plant Cell Reports, 2022)

Tests used:
Assay type in all cases: binding
scytovirin (SVN) [1] = target: T1, scytovirin (SVN) (Scytonema varium, UniProt P86041); experiment: differential scanning calorimetry; details: 10 mM sodium phosphate pH 7.4, 3 mM sodium azide; 20 µM protein, 60 °C/h; Tm of the complex, not a shift; free SVN in the 2nd table, row 3
T1 sequence (P86041 1-95): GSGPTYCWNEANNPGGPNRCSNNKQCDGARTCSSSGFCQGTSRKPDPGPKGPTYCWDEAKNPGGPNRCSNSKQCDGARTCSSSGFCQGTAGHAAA
From the text: differential scanning calorimetry on scytovirin (SVN)

scytovirin (SVN) [2] = target: T1, scytovirin (SVN); experiment: isothermal titration calorimetry; details: 10 mM sodium phosphate pH 7.4, 3 mM sodium azide, 30 °C; one set of identical sites
From the text: isothermal titration calorimetry on scytovirin (SVN)

[3] = target: T2, SD1 (structural domain 1 of scytovirin) (Scytonema varium, UniProt P86041); experiment: differential scanning calorimetry; details: 10 mM sodium phosphate pH 7.4, 3 mM sodium azide; 20 µM protein, 60 °C/h; shift is a decrease (destabilization)
T2 construct: isolated N-terminal domain SD1 (residues 1-48), recombinant from E. coli, purified
T2 sequence (P86041 1-48): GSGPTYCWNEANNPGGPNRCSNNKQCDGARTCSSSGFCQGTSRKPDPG

Tm °C (scytovirin (SVN) [1]) [°C] | Kd (scytovirin (SVN) [2]) [µM] | ΔTm [3] | Substance
56.50 ± 0.05 | 3.99 ± 0.93 |  | nonamannoside
 | 17.8 ± 2.75 | ~ 11.5 °C | tetramannoside
